Key:
MLXBIR3SG = molecular target: T1, MLXBIR3SG (Homo sapiens, UniProt Q96CA5, S150G); assay: Fluorescence polarization peptide binding assay, MLXBIR3SG; conditions: 0.06 μM MLXBIR3SG, 5 nM AVP-diPhe-FAM probe; for Ki: Ki determined from IC50
T1 sequence (Q96CA5 with tags, fused parts or gaps S150G): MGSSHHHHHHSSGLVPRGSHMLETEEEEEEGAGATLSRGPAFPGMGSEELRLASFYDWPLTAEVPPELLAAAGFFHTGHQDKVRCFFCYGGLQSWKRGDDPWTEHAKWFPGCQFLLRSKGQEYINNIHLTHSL
Method: In the following experiments was used a chimeric BIR domain referred to as MLXBIR3SG in which 11 of 110 residues correspond to those found in XIAP-BIR3, while the remainder correspond to ML-IAP-BIR. […] The improved caspase-9 inhibition of the chimeric BIR domain MLXBIR3SG has been correlated with increased inhibition of doxorubicin-induced apoptosis when transfected into MCF7 cells.
(§1) Polarization experiments were performed on an Analyst HT 96-384 (Molecular Devices Corp.) according to the procedure of Keating, S. M., Marsters, J, Beresini, M., Ladner, C., Zioncheck, K., Clark, K., Arellano, F., and Bodary, S. (2000) in Proceedings of SPIE: In Vitro Diagnostic Instrumentation (Cohn, G. E., Ed.) pp 128-137, Bellingham, Wash. Initial polarization experiments were performed in order to determine dissociation constants (Kd) between IAP protein BIR domains and fluorescent probes. Samples for fluorescence polarization affinity measurements were prepared by addition of serial dilutions of MLXBIR3SG, XIAP-BIR3, cIAP1XBIR3, or cIAP2XBIR3 in polarization buffer (50 mM Tris [pH 7.2], 120 mM NaCl, 1% bovine globulins, 5 mM DTT and 0.05% octylglucoside) to 5 nM 5-carboxyflourescein (5-FAM)-conjugated AVP-diphenylalanine-AKK (AVP-diPhe-FAM). The resulting reactions were incubated for 30 minutes at room temperature in 384-well black HE96 plates (Molecular Devices Corp.; Sunnyvale, Calif.) and fluorescence values were measured using standard filters for the fluorescein fluorophore (λex=485 nm, λem=530 nm). Fluorescence polarization values were plotted as a function of the protein concentration and the 50% effective concentration (EC50) values were obtained by fitting the data to a four-parameter equation using KaleidaGraph software (Synergy Software; Reading, Pa.). The apparent Kd values were determined from the EC50 values.
(§2) Inhibition constants (Ki) for the antagonists were determined by addition of 0.06 μM MLXBIR3SG, 0.5 μM XIAP-BIR3, 0.2 μM cIAP1XBIR3 or 0.4 μM cIAP2XBIR3 to wells containing 1:3 serial dilutions of the antagonists, and 5 nM AVP-diPhe-FAM probe in the polarization buffer. After a 10 to 30-minute incubation period, the fluorescence value of each sample was measured. Fluorescence polarization values were plotted as a function of the antagonist concentration, and the 50% inhibitory concentration (IC50) values were determined by fitting the data to a four-parameter equation using KaleidaGraph software. The Ki values for the antagonists were determined from the IC50 values (Keating et al. 2000).

XIAP-BIR3 = molecular target: T2, XIAP-BIR3 (Homo sapiens, UniProt P98170); assay: Fluorescence polarization peptide binding assay, XIAP-BIR3; conditions: 0.5 μM XIAP-BIR3, 5 nM AVP-diPhe-FAM probe; for Ki: Ki determined from IC50, read-out: XIAPBIR3 Ki; for IC50: read-out: XIAPBIR3 IC50
T2 construct: serial dilutions of MLXBIR3SG, XIAP-BIR3, cIAP1XBIR3, or cIAP2XBIR3
Method: as §1, §2

cIAP1XBIR3 = molecular target: T3, cIAP1XBIR3 (Homo sapiens, UniProt Q13490, C308S/R332G/S292A); assay: Fluorescence polarization peptide binding assay, cIAP1XBIR3; conditions: 0.2 μM cIAP1XBIR3, 5 nM AVP-diPhe-FAM probe; for Ki: Ki determined from IC50
T3 construct: made in house
Method: (§3) Similar cIAP1-BIR3/XIAP-BIR3 and cIAP2-BIR3/XIAP-BIR3 chimeric proteins, cIAP1XBIR3 and cIAP2XBIR3, respectively, were engineered, expressed, and purified in a similar fashion to MLXBIR3SG. As with MLXBIR3SG, the amino acid sequences of these BIR domains retain the native cIAP peptide-binding sites.
as §1, §2

cIAP2XBIR3 = molecular target: T4, cIAP2XBIR3 (Homo sapiens, UniProt Q13489, C294S/R318G/S278A); assay: Fluorescence polarization peptide binding assay, cIAP2XBIR3; conditions: 0.4 μM cIAP2XBIR3, 5 nM AVP-diPhe-FAM probe
T4 construct: made in house
Method: as §3
Polarization experiments were performed on an Analyst HT 96-384 (Molecular Devices Corp.) according to the procedure of Keating, S. M., Marsters, J, Beresini, M., Ladner, C., Zioncheck, K., Clark, K., Arellano, F., and Bodary, S. (2000) in Proceedings of SPIE: In Vitro Diagnostic Instrumentation (Cohn, G. E., Ed.) pp 128-137, Bellingham, Wash. Initial polarization experiments were performed in order to determine dissociation constants (Kd) between IAP protein BIR domains and fluorescent probes. […] The resulting reactions were incubated for 30 minutes at room temperature in 384-well black HE96 plates (Molecular Devices Corp.; Sunnyvale, Calif.) and fluorescence values were measured using standard filters for the fluorescein fluorophore (λex=485 nm, λem=530 nm). […] The apparent Kd values were determined from the EC50 values. […]

T3 sequence (Q13490 with tags, fused parts or gaps S292A/C308S/R332G): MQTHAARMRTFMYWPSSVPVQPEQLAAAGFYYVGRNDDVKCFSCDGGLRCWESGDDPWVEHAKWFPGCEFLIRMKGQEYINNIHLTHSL
T2 sequence (P98170 241-356 limits assumed): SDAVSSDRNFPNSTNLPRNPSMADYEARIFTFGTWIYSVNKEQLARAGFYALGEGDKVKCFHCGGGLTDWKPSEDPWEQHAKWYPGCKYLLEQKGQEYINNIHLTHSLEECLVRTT
T4 sequence (Q13489 with tags, fused parts or gaps S278A/C294S/R318G): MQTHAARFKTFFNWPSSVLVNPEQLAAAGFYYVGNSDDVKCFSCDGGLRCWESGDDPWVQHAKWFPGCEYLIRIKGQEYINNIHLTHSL

IC50 (MLXBIR3SG) [nM]	Ki (MLXBIR3SG) [nM]	Ki (XIAP-BIR3) [nM]	IC50 (XIAP-BIR3) [nM]	IC50 (cIAP1XBIR3) [nM]	Ki (cIAP1XBIR3) [nM]	IC50 (cIAP2XBIR3) [nM]	Ki (cIAP2XBIR3; Ki determined from IC50) [nM]	SMILES
113	25.7	85.6	481	–	–	–	–	CN[C@@H](C)C(=O)N[C@H](C(=O)N1CCC[C@H]1c1cc2ccnc(-c3ccc(F)cc3)c2[nH]1)C1CCOCC1 [compound 7]
158	36	90.5	508	461	71.3	502	109	CN[C@@H](C)C(=O)N[C@H](C(=O)N1CCC[C@H]1c1cc2ccnc(-c3ccccc3)c2[nH]1)C1CCOCC1 [compound 1]
648	148	121	682	194	30.1	–	–	CN[C@@H](C)C(=O)N[C@H](C(=O)N1CCC[C@H]1c1cc2ccnc(-c3ccccc3Cl)c2[nH]1)C1CCOCC1 [compound 11]
359	81.9	201	1130	–	–	–	–	CN[C@@H](C)C(=O)N[C@H](C(=O)N1CCC[C@H]1c1cc2nc(C)nc(-c3ccccc3)c2[nH]1)C1CCOCC1 [compound 6]

Further lines, the compound ahead of its results:

SMILES	IC50 (MLXBIR3SG) [nM]	Ki (MLXBIR3SG) [nM]	Ki (XIAP-BIR3) [nM]	IC50 (XIAP-BIR3) [nM]	IC50 (cIAP1XBIR3) [nM]	Ki (cIAP1XBIR3) [nM]	IC50 (cIAP2XBIR3) [nM]	Ki (cIAP2XBIR3; Ki determined from IC50) [nM]
CN[C@@H](C)C(=O)N[C@H](C(=O)N1CCC[C@H]1c1cc2ccnc(-c3ccccc3)c2[nH]1)c1ccccc1 [compound 12]	144	32.9	64.4	–	–	–	–	–
CN[C@@H](C)C(=O)N[C@H](C(=O)N1CCC[C@H]1c1cc2nc(C)nc(-c3ccc(F)cc3)c2[nH]1)C1CCCCC1 [compound 9]	62	14.1	64.9	364	–	–	–	–
CN[C@@H](C)C(=O)N[C@H](C(=O)N1CCC[C@H]1c1cc2ncnc(-c3ccccc3)c2[nH]1)C1CCOCC1 [compound 4]	156	35.6	76.9	434	–	–	–	–
CN[C@@H](C)C(=O)N[C@H](C(=O)N1CCC[C@H]1c1cc2ccnc(-c3ccccc3)c2[nH]1)C1CCCCC1 [compound 13]	91	20.7	63.8	–	–	–	–	–
CN[C@@H](C)C(=O)N[C@H](C(=O)N1CCC[C@H]1c1cc2ncnc(-c3ccccc3)c2[nH]1)C1CCCCC1 [compound 3]	131	29.8	79.2	445	–	–	–	–
CN[C@@H](C)C(=O)N[C@H](C(=O)N1CCC[C@H]1c1cc2ccnc(-c3ccc(F)cc3)c2[nH]1)C1CCCCC1 [compound 10]	99.3	22.6	102	574	–	–	–	–
CN[C@@H](C)C(=O)N[C@H](C(=O)N1CCC[C@H]1c1cc2nc(C)nc(-c3ccccc3)c2[nH]1)C1CCCCC1 [compound 5]	139	31.7	91.5	514	–	–	–	–
CN[C@@H](C)C(=O)N[C@H](C(=O)N1CCC[C@H]1c1cc2nc(C)nc(-c3ccc(F)cc3)c2[nH]1)C1CCOCC1 [compound 8]	108	24.6	89	500	–	–	–	–

Reference: patent US20110218211A1, “AZAINDOLE INHIBITORS OF IAP” (Genentech, Inc., priority 2008, published 2011)
